Laboratory results as given in ChEMBL document CHEMBL5029197, “Synthesis and Metabolism of BTN3A1 Ligands: Studies on Diene Modifications to the Phosphoantigen Scaffold” (ACS Med Chem Lett, 2022).
Active and inactive are the calls of the source. No cut-off for these calls is given here.

Tests used:
[1] = Drug metabolism in human K562 cells assessed as free phosphonic diacid metabolite formation at 100 uM incubated for 1 hr by LC-MS analysis; assay type: ADME, cell-based; settings: k562, 1 h
[2] = (§1) Induction of cell proliferation in human Vgamma9Vdelta2-T cells stimulated with human PBMC for 3 days followed by compound washout and supplemented with IL2 every 3 days for 11 days by flow cytometry analysis; assay type: functional, cell-based
[3] = (§2) Induction of IFN-gamma production in human Vgamma9Vdelta2-T cells incubated for 15 mins with compound-loaded K562 cells followed by compound washout and measured after 20 hrs by ELISA; assay type: functional, cell-based; settings: Vgamma9Vdelta2 T cell
[4] = test system: K562; experiment: Cytotoxicity against human K562 cells assessed as reduction in cell viability measured after 72 hrs by colorimetric assay; assay type: cell-based; settings: k562, 72 h
[5] = (§3) Induction of IFN-gamma production in human Vgamma9Vdelta2-T cells incubated for 4 mins with compound-loaded K562 cells followed by compound washout and measured after 20 hrs by ELISA; assay type: functional, cell-based; settings: Vgamma9Vdelta2 T cell
[6] = (§4) Induction of IFN-gamma production in human Vgamma9Vdelta2-T cells incubated for 60 mins with compound-loaded K562 cells followed by compound washout and measured after 20 hrs by ELISA; assay type: functional, cell-based; settings: Vgamma9Vdelta2 T cell
[7] = (§5) Induction of IFN-gamma production in human Vgamma9Vdelta2-T cells incubated for 240 mins with compound-loaded K562 cells followed by compound washout and measured after 20 hrs by ELISA; assay type: functional, cell-based; settings: Vgamma9Vdelta2 T cell
[8] = Stability of compound in human plasma assessed as parent compound remaining at 100 uM measured after 24 hrs by LC-MS analysis; assay type: ADME, cell-free; settings: for Stability: 24 h, 100 µM; for remaining at 24 h, 100 µM: read-out: Stability
[9] = Stability of compound in human plasma assessed as parent compound remaining at 100 uM measured after 2 hrs by LC-MS analysis; assay type: ADME, cell-free; settings: for Stability: 2 h, 100 µM; for remaining at 2 h, 100 µM: read-out: Stability
[10] = biological target: Butyrophilin subfamily 3 member A1 (Homo sapiens) (UniProt O00481); experiment: Displacement of GDP-BODIPY probe from BTN3A1 full intracellular domain (unknown origin) at […] measured after 60 mins by fluorescence polarization assay
[11] = Drug metabolism in human K562 cells assessed as monoacid methyl ester metabolite formation at 100 uM incubated for 1 hr by LC-MS analysis; assay type: ADME, cell-based; settings: k562, 1 h
[12] = test system: Vgamma9Vdelta2-T cell; experiment: as §1; assay type: functional, cell-based; settings: time 3.0 day
[13] = test system: Vgamma9Vdelta2-T cell; experiment: as §2; assay type: functional, cell-based
[14] = test system: Vgamma9Vdelta2-T cell; experiment: as §3; assay type: functional, cell-based
[15] = test system: Vgamma9Vdelta2-T cell; experiment: as §4; assay type: functional, cell-based
[16] = test system: Vgamma9Vdelta2-T cell; experiment: as §5; assay type: functional, cell-based

Sequence of Butyrophilin subfamily 3 member A1 (Homo sapiens) (O00481 30-513 limits assumed): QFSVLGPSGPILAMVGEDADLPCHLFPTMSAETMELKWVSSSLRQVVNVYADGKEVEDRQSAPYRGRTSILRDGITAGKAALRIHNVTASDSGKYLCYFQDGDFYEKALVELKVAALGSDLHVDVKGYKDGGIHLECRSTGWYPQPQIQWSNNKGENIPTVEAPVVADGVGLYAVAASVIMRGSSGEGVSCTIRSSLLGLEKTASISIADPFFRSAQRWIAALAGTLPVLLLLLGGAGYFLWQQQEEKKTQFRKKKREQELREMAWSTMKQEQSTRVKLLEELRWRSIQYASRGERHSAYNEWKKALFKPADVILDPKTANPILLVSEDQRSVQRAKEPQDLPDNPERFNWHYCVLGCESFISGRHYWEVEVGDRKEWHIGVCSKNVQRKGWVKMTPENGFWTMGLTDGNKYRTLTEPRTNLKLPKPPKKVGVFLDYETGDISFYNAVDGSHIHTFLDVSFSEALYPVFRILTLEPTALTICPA

Row | EC50 [3] | EC50 [5] | EC50 [6] | EC50 [7] | Stability [8] | Stability [9] | Compound | Drug metabolism [1] | EC50 [2] | Activity [4] | Activity [10] | remaining at 2 h, 100 µM [9] | remaining at 24 h, 100 µM [8] | Drug metabolism [11] | Activity [12] | Activity [13] | Activity [14] | Activity [15] | Activity [16]
1 | > 100 µM | > 100 µM | > 100 µM | 38 µM | Unstable | Unstable | CC(=O)OC/C(C)=C/C=C/P(=O)(OCOC(=O)C(C)(C)C)OCOC(=O)C(C)(C)C | Metabolite_Detected | 60 µM | > 100 µM |  |  |  |  |  |  |  |  | 
2 |  |  |  |  |  |  | C/C(=C\C=C\P(=O)(O)O)CO |  | 15 µM | > 100 µM | Active |  |  |  |  |  |  |  | 
3 | 0.043 µM |  | 0.03 µM | 0.024 µM | Unstable | Unstable | C/C(=C\CCP(=O)(OCOC(=O)C(C)(C)C)OCOC(=O)C(C)(C)C)CO |  |  | > 100 µM |  |  |  |  |  |  |  |  | 
4 | > 100 µM | > 100 µM | 52 µM | 18 µM | Unstable |  | CC(C)=C/C=C/P(=O)(OCOC(=O)C(C)(C)C)OCOC(=O)C(C)(C)C | Metabolite_Detected | 0.29 µM | > 100 µM |  | 6% |  |  |  |  |  |  | 
5 |  |  |  |  |  |  | C/C(=C\CCP(=O)(O)O)CO |  |  |  | inactive |  |  |  |  |  |  |  | 
6 | 98 µM | > 100 µM | 37 µM | 11 µM |  |  | COP(=O)(/C=C/C=C(C)C)OCOC(=O)C(C)(C)C (configuration not stated) |  | 0.13 µM | 20 µM |  | 62% | 4% | Metabolite_Detected |  |  |  |  | 
7 |  |  |  |  |  |  | CC(C)=C/C=C/P(=O)(Oc1ccccc1)Oc1ccccc1 |  |  | > 100 µM |  | 89% | 73% | Metabolite_Notdetected | inactive | inactive | inactive | inactive | inactive
8 |  |  |  |  |  |  | CC(C)=C/C=C/P(=O)([O-])[O-].[Na+].[Na+] |  | > 100 µM | > 100 µM | Active |  |  |  |  |  |  |  | 

Row | Compound | EC50 [3] | EC50 [5] | EC50 [6] | EC50 [7] | Stability [8] | Stability [9] | Drug metabolism [1] | EC50 [2] | Activity [4] | Activity [10] | remaining at 2 h, 100 µM [9] | remaining at 24 h, 100 µM [8] | Drug metabolism [11] | Activity [12] | Activity [13] | Activity [14] | Activity [15] | Activity [16]
9 | COC(=O)[C@H](C)NP(=O)(/C=C/C=C(C)C)Oc1ccccc1 (some centres not stated) | > 100 µM | > 100 µM | > 100 µM | 75 µM |  |  | Metabolite_Detected | 11 µM | > 100 µM |  | 69% | 63% |  |  |  |  |  | 
10 | CC(C)=C/C=C/P(=O)(OCOC(=O)C(C)(C)C)Oc1ccccc1 (configuration not stated) | > 100 µM | > 100 µM | 29 µM | 9.1 µM |  |  | Metabolite_Detected | 0.75 µM | 100 µM |  | 48% | 16% |  |  |  |  |  | 
